According to patent US20240025884A1 (Dong-A ST Co., Ltd., priority 2022, published 2024):

Target: GCN2 (Homo sapiens (Human), UniProt Q9P2K8)
Assay: GCN2 Biochemical Assay (TR-FRET, GFP-eIF2S1 substrate phosphorylation)
Conditions: read-out: IC50 (GCN2 Inhibitory Activity)
In short: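 In-house GCN2 (1.6 nM 2× stock) phosphorylates GFP-eIF2S1 (50 nM 2× stock) with ATP (0.2 mM 2× stock) and tRNA, pH 7.5, 70 min at room temperature; 10-point 3.16-fold compound series. TR-FRET detection with Tb-anti-phospho antibody, 2–3 h, Ex 340/Em 490/520 nm; artifact plate spiked with phospho-substrate.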

Chain of GCN2 (Q9P2K8 whole entry): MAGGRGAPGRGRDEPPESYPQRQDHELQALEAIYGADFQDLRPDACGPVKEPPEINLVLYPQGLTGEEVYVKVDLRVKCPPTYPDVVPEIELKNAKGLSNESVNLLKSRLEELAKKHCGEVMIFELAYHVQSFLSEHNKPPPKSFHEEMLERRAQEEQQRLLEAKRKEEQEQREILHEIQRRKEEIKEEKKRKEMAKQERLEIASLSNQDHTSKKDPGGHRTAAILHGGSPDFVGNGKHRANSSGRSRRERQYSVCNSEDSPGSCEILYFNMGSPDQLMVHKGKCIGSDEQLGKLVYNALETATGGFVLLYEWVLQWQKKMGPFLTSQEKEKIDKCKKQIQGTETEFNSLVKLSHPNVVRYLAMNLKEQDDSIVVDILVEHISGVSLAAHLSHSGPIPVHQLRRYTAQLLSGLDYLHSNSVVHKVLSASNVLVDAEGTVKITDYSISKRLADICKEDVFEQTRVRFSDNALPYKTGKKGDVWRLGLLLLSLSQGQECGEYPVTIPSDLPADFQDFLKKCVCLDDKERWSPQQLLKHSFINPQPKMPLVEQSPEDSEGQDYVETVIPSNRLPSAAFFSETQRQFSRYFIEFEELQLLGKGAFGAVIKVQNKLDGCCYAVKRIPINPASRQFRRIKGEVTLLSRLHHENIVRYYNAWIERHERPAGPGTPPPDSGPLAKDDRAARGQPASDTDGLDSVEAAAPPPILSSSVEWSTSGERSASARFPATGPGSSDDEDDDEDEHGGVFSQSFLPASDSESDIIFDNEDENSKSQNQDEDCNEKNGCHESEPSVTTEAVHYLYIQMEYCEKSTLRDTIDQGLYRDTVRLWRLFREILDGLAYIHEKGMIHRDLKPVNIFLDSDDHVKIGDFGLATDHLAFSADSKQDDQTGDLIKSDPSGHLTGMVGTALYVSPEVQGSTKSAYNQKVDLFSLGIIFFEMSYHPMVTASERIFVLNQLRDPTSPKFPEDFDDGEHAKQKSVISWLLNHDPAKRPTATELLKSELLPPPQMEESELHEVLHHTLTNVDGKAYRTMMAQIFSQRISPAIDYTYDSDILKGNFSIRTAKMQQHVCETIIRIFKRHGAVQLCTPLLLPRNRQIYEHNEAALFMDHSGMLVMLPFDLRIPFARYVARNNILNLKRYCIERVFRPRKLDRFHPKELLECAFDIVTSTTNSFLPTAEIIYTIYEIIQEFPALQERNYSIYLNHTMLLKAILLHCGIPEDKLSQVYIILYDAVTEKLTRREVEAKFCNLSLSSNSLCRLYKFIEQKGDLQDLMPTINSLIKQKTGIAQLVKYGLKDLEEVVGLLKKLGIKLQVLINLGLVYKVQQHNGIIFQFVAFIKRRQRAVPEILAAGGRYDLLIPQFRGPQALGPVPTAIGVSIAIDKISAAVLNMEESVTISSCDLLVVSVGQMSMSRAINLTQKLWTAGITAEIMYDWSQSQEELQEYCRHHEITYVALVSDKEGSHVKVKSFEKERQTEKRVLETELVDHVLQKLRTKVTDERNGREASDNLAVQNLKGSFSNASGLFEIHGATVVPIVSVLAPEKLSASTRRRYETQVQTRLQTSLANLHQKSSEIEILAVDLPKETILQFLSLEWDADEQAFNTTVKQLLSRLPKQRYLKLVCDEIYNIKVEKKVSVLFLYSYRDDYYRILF

IC50 [nM]	SMILES
< 10	CCCCNc1nccc(O[C@H]2CCN(CC(=O)Nc3cccc4c(-c5nc(Nc6cc(C)n(C)n6)ncc5C)c[nH]c34)C2)n1 [Example 205, (S)-2-(3-((2-(butylamino)pyrimidin-4-yl)oxy)pyrrolidin-1-yl)-N-(3-(2-((1,5-dimethyl-1H-pyrazol-3-yl)amino)-5-methylpyrimidin-4-yl)-1H-indol-7-yl)acetamide]
< 10	Cc1cnc(Nc2cc(C)n(C)n2)nc1-c1c[nH]c2c(NC(=O)CN3CC[C@H](Oc4ccnc(NCCCO)n4)C3)cccc12 [Example 206, (S)-N-(3-(2-((1,5-dimethyl-1H-pyrazol-3-yl)amino)-5-methylpyrimidin-4-yl)-1H-indol-7-yl)-2-(3-((2-((3-hydroxypropyl)amino)pyrimidin-4-yl)oxy)pyrrolidin-1-yl)acetamide]
< 10	Cc1cnc(Nc2cc(C)n(C)n2)nc1-c1c[nH]c2c(NC(=O)CN3CC[C@H](Oc4ccnc(NC5CC5)n4)C3)cccc12 [Example 207, (S)-2-(3-((2-(cyclopropylamino)pyrimidin-4-yl)oxy)pyrrolidin-1-yl)-N-(3-(2-((1,5-dimethyl-1H-pyrazol-3-yl)amino)-5-methylpyrimidin-4-yl)-1H-indol-7-yl)acetamide]
< 10	Cc1cnc(Nc2cc(C)n(C)n2)nc1-c1c[nH]c2c(NC(=O)CN3CC[C@H](Oc4ccnc(NC5CCC5)n4)C3)cccc12 [Example 208, (S)-2-(3-((2-(cyclobutylamino)pyrimidin-4-yl)oxy)pyrrolidin-1-yl)-N-(3-(2-((1,5-dimethyl-1H-pyrazol-3-yl)amino)-5-methylpyrimidin-4-yl)-1H-indol-7-yl)acetamide]
10 to 100	Cc1cnc(Nc2cc(C)n(C)n2)nc1-c1c[nH]c2c(NC(=O)CN3CC[C@H](Oc4ccnc(NC5CCCC5)n4)C3)cccc12 [Example 209, (S)-2-(3-((2-(cyclopentylamino)pyrimidin-4-yl)oxy)pyrrolidin-1-yl)-N-(3-(2-((1,5-dimethyl-1H-pyrazol-3-yl)amino)-5-methylpyrimidin-4-yl)-1H-indol-7-yl)acetamide]
10 to 100	Cc1cnc(Nc2cc(C)n(C)n2)nc1-c1c[nH]c2c(NC(=O)CN3CC[C@H](Oc4ccnc(NC5CCCCC5)n4)C3)cccc12 [Example 210, (S)-2-(3-((2-(cyclohexylamino)pyrimidin-4-yl)oxy)pyrrolidin-1-yl)-N-(3-(2-((1,5-dimethyl-1H-pyrazol-3-yl)amino)-5-methylpyrimidin-4-yl)-1H-indol-7-yl)acetamide]
< 10	Cc1cnc(Nc2cc(C)n(C)n2)nc1-c1c[nH]c2c(NC(=O)CN3CC[C@H](Oc4ccnc(NC(C)C)n4)C3)cccc12 [Example 211, (S)-N-(3-(2-((1,5-dimethyl-1H-pyrazol-3-yl)amino)-5-methylpyrimidin-4-yl)-1H-indol-7-yl)-2-(3-((2-(isopropylamino)pyrimidin-4-yl)oxy)pyrrolidin-1-yl)acetamide]
< 10	CCC(C)Nc1nccc(O[C@H]2CCN(CC(=O)Nc3cccc4c(-c5nc(Nc6cc(C)n(C)n6)ncc5C)c[nH]c34)C2)n1 (stereo partly drawn) [Example 212, 2-((3S)-3-((2-(sec-butylamino)pyrimidin-4-yl)oxy)pyrrolidin-1-yl)-N-(3-(2-((1,5-dimethyl-1H-pyrazol-3-yl)amino)-5-methylpyrimidin-4-yl)-1H-indol-7-yl)acetamide]
< 10	Cc1cnc(Nc2cc(C)n(C)n2)nc1-c1c[nH]c2c(NC(=O)CN3CC[C@H](Oc4ccnc(NCC5CC5)n4)C3)cccc12 [Example 213, (S)-2-(3-((2-((cyclopropylmethyl)amino)pyrimidin-4-yl)oxy)pyrrolidin-1-yl)-N-(3-(2-((1,5-dimethyl-1H-pyrazol-3-yl)amino)-5-methylpyrimidin-4-yl)-1H-indol-7-yl)acetamide]
< 10	Cc1cnc(Nc2cc(C)n(C)n2)nc1-c1c[nH]c2c(NC(=O)CN3CC[C@H](Oc4ccnc(NCc5ccccc5)n4)C3)cccc12 [Example 214, (S)-2-(3-((2-(benzylamino)pyrimidin-4-yl)oxy)pyrrolidin-1-yl)-N-(3-(2-((1,5-dimethyl-1H-pyrazol-3-yl)amino)-5-methylpyrimidin-4-yl)-1H-indol-7-yl)acetamide]
< 10	Cc1cnc(Nc2cc(C)n(C)n2)nc1-c1c[nH]c2c(NC(=O)CN3CC[C@H](Oc4ccnc(NCCO)n4)C3)cccc12 [Example 215, (S)-N-(3-(2-((1,5-dimethyl-1H-pyrazol-3-yl)amino)-5-methylpyrimidin-4-yl)-1H-indol-7-yl)-2-(3-((2-((2-hydroxyethyl)amino)pyrimidin-4-yl)oxy)pyrrolidin-1-yl)acetamide]
< 10	COCCNc1nccc(O[C@H]2CCN(CC(=O)Nc3cccc4c(-c5nc(Nc6cc(C)n(C)n6)ncc5C)c[nH]c34)C2)n1 [Example 216, (S)-N-(3-(2-((1,5-dimethyl-1H-pyrazol-3-yl)amino)-5-methylpyrimidin-4-yl)-1H-indol-7-yl)-2-(3-((2-((2-methoxyethyl)amino)pyrimidin-4-yl)oxy)pyrrolidin-1-yl)acetamide]
< 10	Cc1cnc(Nc2cc(C)n(C)n2)nc1-c1c[nH]c2c(NC(=O)CN3CC[C@H](Oc4ccnc(NCCN(C)C)n4)C3)cccc12 [Example 217, (S)-N-(3-(2-((1,5-dimethyl-1H-pyrazol-3-yl)amino)-5-methylpyrimidin-4-yl)-1H-indol-7-yl)-2-(3-((2-((2-(dimethylamino)ethyl)amino)pyrimidin-4-yl)oxy)pyrrolidin-1-yl)acetamide]
< 10	Cc1cnc(Nc2cc(C)n(C)n2)nc1-c1c[nH]c2c(NC(=O)CN3CC[C@H](Oc4ccnc(NCCCN(C)C)n4)C3)cccc12 [Example 218, (S)-N-(3-(2-((1,5-dimethyl-1H-pyrazol-3-yl)amino)-5-methylpyrimidin-4-yl)-1H-indol-7-yl)-2-(3-((2-((3-(dimethylamino)propyl)amino)pyrimidin-4-yl)oxy)pyrrolidin-1-yl)acetamide]
< 10	CONc1nccc(O[C@H]2CCN(CC(=O)Nc3cccc4c(-c5nc(Nc6cc(C)n(C)n6)ncc5C)c[nH]c34)C2)n1 [Example 219, (S)-N-(3-(2-((1,5-dimethyl-1H-pyrazol-3-yl)amino)-5-methylpyrimidin-4-yl)-1H-indol-7-yl)-2-(3-((2-(methoxyamino)pyrimidin-4-yl)oxy)pyrrolidin-1-yl)acetamide]
10 to 100	Cc1cnc(Nc2cc(C)n(C)n2)nc1-c1c[nH]c2c(NC(=O)CN3CC[C@H](Oc4ccnc(N(C)C)n4)C3)cccc12 [Example 220, (S)-N-(3-(2-((1,5-dimethyl-1H-pyrazol-3-yl)amino)-5-methylpyrimidin-4-yl)-1H-indol-7-yl)-2-(3-((2-(dimethylamino)pyrimidin-4-yl)oxy)pyrrolidin-1-yl)acetamide]
100 to 1000	Cc1cnc(Nc2cc(C)n(C)n2)nc1-c1c[nH]c2c(NC(=O)CN3CC[C@H](Oc4ccnc(N(C)Cc5ccccc5)n4)C3)cccc12 [Example 221, (S)-2-(3-((2-(benzyl(methyl)amino)pyrimidin-4-yl)oxy)pyrrolidin-1-yl)-N-(3-(2-((1,5-dimethyl-1H-pyrazol-3-yl)amino)-5-methylpyrimidin-4-yl)-1H-indol-7-yl)acetamide]
